# In ChEMBL document CHEMBL3507680, “University of Dundee, Gates Library screen for HepG2 cell viability”:
# Assay: Human HepG2 cell viability assay in 384 well format
# Type: toxicity, cell-based
# Design: dose 125 nL, time 70.5 hour; cytotoxicity at 70.5 h: concentration not given beside the values
# Settings: HepG2 cells, read-out: Inhibition
row,Structure (SMILES),cytotoxicity at 70.5 h [%]
1,O=C(NCc1nc(NC2CCCC2)c2cc(Cl)ccc2n1)c1ccoc1,5.65
2,CC(=O)N1CC[C@@H]2CN(Cc3ccncc3)S(=O)(=O)[C@@H]2CC1,0.262
3,Cc1cnn(CCNCc2csc(COc3ccccc3)n2)c1,-0.421
4,CC(C)(O)CN1CCN(C(=O)c2cccc3cccnc23)CC1,-2.87
5,c1ccc(-c2nccc(CNC3CCc4ncnn4C3)n2)cc1 (configuration not stated),-4.99
6,Cc1cccc(C(=O)N2CCN(S(C)(=O)=O)[C@@H](C)C2)c1Cl,-102
7,CCS(=O)(=O)N1CC(c2nc(-c3ccsc3)no2)C1,-3.37
8,O=C(CC[C@@H]1CCCN2CCCC[C@H]12)NCCc1nc(O)cc(O)n1,-5.7
9,Cc1[nH]c(=O)[nH]c(=O)c1CN1CCCC(CCc2ccccc2F)C1 (configuration not stated),-5.63
10,COCC1COCCC12CCN(S(=O)(=O)c1cccnc1)CC2 (configuration not stated),-1.01
11,Cc1cnn(CCNC(C)C(=O)NCCc2cccs2)c1 (configuration not stated),23
12,CN1CCC(NC(=O)Nc2ccc(F)c(-n3cccc3)c2)C1=O (configuration not stated),-12.5
13,O=C(O)C(c1ccc2[nH]ccc2c1)N1CCN(c2cnccn2)CC1 (configuration not stated),-3.87
14,O=C(CN1C[C@H]2C[C@H](OCc3ccccc3)C[C@H]2C1)N1CCOCC1,-4.18
15,Cc1nc(CN2CCCC(CCc3ccc(F)c(F)c3)C2)c[nH]1 (configuration not stated),19.5
16,CCn1c(CN(C)C(=O)c2ccc(O)nc2)nc2ccccc21,-5.75
17,COCCCN1CCCC(c2nccn2CC2CCC2)C1 (configuration not stated),-15
18,CC1CCN(C(=O)C2CCN(c3ccc(Cl)cc3C#N)CC2)CC1,-6.44
19,CCc1n[nH]c(C2CN(C(=O)c3csnn3)CCO2)n1 (configuration not stated),-18.6
20,O=C(NCCCNC(=O)c1ccccc1)Nc1ccc(F)cc1F,-4.28
21,COCc1nc2cc3c(cc2c(=O)o1)OCCCO3,-7.11
22,CCN(c1ccccc1C(=O)O)S(=O)(=O)c1cccc2cccnc12,1.89
23,CC(=O)N1CCCN(C(=O)Cc2ccc3c(c2)OCO3)CC1,-14.3

row,Structure (SMILES),cytotoxicity at 70.5 h [%]
1,O=C(c1ccnc(N2CCOC(c3ccc(Cl)cc3)C2)c1)N1CCCC1 (configuration not stated),-15.4
2,CC(C)(C)OC(=O)N1CCC(NCc2cnn(C(C)(C)C)c2)CC1,-2.5
3,O=C(NCCNc1ncccn1)c1cnc(-c2ccccc2)nc1,-2.38
4,CNc1cc(N2CCCC2CNCc2cccnc2C)ncn1 (configuration not stated),4.98
5,COc1ccc(CCNC(=O)NC2CC(=O)N(c3ccccc3)C2)cc1 (configuration not stated),49
6,O=C(CC1CCN(c2ncnc3cccc(F)c23)CC1)N1CCCC1,-24.3
7,COCCC(=O)N1CCCC([C@@H]2C[C@H](C(F)F)n3ncnc3N2)C1 (some centres not stated),-4.06
8,Cc1ccccc1Oc1ncccc1CNS(C)(=O)=O,19.1
9,O=C(NC1CCN(c2ccc(-c3ccccc3F)nn2)C1)C1CCC1 (configuration not stated),1.72
10,Cc1ncc(C(=O)N2CCCN(Cc3ccccc3F)CC2)c(O)n1,-12.9
11,O=C(c1nnn(-c2ccccc2F)c1-c1ccccn1)N1CCSCC1,-0.794
12,Cc1nn(C)cc1-c1cc(C(F)(F)F)nc(NC2CCCCC2)n1,-9.44
13,CC(C)CN(C)Cc1c[nH]nc1-c1ccc(F)cc1F,-15
14,CN1CCN(C)C(c2nnc3ccc(C(=O)N4CCOCC4)cn23)C1 (configuration not stated),-21.5
15,Cc1cc2c(cc1C)C(NCc1nnc3n1CCCCC3)CCCO2 (configuration not stated),-7.63
16,CS(=O)(=O)N1CCc2[nH]cnc2C12CCN(C1CCOCC1)CC2,-6.93
17,O=C1CC(c2ccncc2)C2(CCN(CC3CC3)CC2)N1 (configuration not stated),14.8
18,O=C(Nc1cccnc1N1CCSCC1)c1ccc2c(c1)CCC2,-3.24
19,CN(CCOc1ccc(Br)cc1)Cc1cscn1,1.92
20,CN(C(=O)Cn1nc(-c2ccc(F)cc2)oc1=O)c1ccccc1,-11.5
21,CCN(C)c1ncnc2c1CCN(C(=O)N1CCCC1)CC2,-12.4
22,CN1CCC(N2CC[C@@H]3[C@@H](CCC(=O)N3CCC3=CCCCC3)C2)CC1,-1.35
23,Cc1cc(C(=O)N2CC[C@@H]3CN(c4ncccn4)CCO[C@@H]3C2)c(C)o1,-12.2

row,Structure (SMILES),cytotoxicity at 70.5 h [%]
1,CCCc1nn(C2CCCN(C(C)C)C2=O)c(=O)o1 (configuration not stated),-9.22
2,CN1CC(=O)N(C2CCNCC2)Cc2c(NCC(C)(C)C)ncnc21,-9.73
3,CC(=O)NS(=O)(=O)c1ccc(F)cc1C(F)(F)F,33.1
4,CC(C)n1nc(Cn2cccc2)c2c1CN(C1CCOCC1)C2,0.409
5,CC(=O)Nc1nc(C(=O)N2CCCC2c2noc(C)n2)cs1 (configuration not stated),6.71
6,O=C(NC1CCc2[nH]c(=O)ccc2C1)C1CCOCC1 (configuration not stated),13.7
7,CC(C)CNC(=O)Cn1ccc2ccccc21,-0.252
8,Cc1ccc(CN(C)CC(=O)NC2(C)CCS(=O)(=O)C2)cc1 (configuration not stated),-3.98
9,Cn1nc(Cn2cccn2)c2c1CN(Cc1ccsc1)C2,-1.91
10,COc1ncccc1CN1CCN(c2noc(C(C)C)n2)CC1,3.17
11,CN(C)CCNC(=O)c1ccc2c(-c3nccs3)noc2c1,-8.08
12,CCCc1nnc(N2CCC(N3CCCC(O)C3)CC2)o1 (configuration not stated),7.96
13,CC(=O)Nc1ncc(S(=O)(=O)Nc2ccc3c(c2)OCCO3)s1,-7.83
14,CS(=O)(=O)NCCC(=O)N1CCCC1c1noc(C2CC2)n1 (configuration not stated),-11.1
15,COc1ccccc1C1(C(=O)N2CCN(CC(C)O)CC2)CC1 (configuration not stated),-0.267
16,Cc1noc(C)c1CN1CCCC2(C1)CN(Cc1nccn1C)CCO2 (configuration not stated),-8.03
17,CCCn1cnnc1CNC(=O)C1COc2c(cccc2OC)C1 (configuration not stated),-11.4
18,CCC(C)N(Cc1ccncc1)C(=O)CCSC (configuration not stated),-10.6
19,CC(C)N(C)S(=O)(=O)N(C)Cc1cnn(C)c1,-3.87
20,NC(=O)C1(c2cnccn2)CCCN1Cc1ccncc1 (configuration not stated),-0.768
21,O=C([C@@H]1COC[C@H]2CN(C3CCOCC3)C[C@H]21)N1CCCO1,14.5
22,NC(=O)NCC1CCCCN1C(=O)c1cc(F)cc(F)c1 (configuration not stated),-2.44
23,CN(C)C(=O)N[C@H]1CN(Cc2ccc3c(c2)OCO3)[C@@H]2CCCO[C@H]12,-12.8

row,Structure (SMILES),cytotoxicity at 70.5 h [%]
1,CCn1cc2c(n1)CN(S(=O)(=O)c1cccnc1)CC2COC (configuration not stated),1.06
2,COc1cc(CNC(C)Cn2cccn2)cc(OC)c1OC (configuration not stated),-7.54
3,O=C1CC(c2cccs2)c2cnn(C3CCCC3)c2N1 (configuration not stated),6.7
4,Nc1cc2c(nn1)CCN(C(=O)CCc1ccc3c(c1)OCO3)C2,-6.15
5,CC(C)CC(=O)N1CCC2(CC1)[C@@H]1CN(C(=O)N(C)C)C[C@@H]1C(=O)N2C,-3.34
6,O=C(CN1CCOCC1)Nc1ccc(C(F)(F)F)cc1Cl,14.6
7,CN(C)C(=O)[C@@]12CCO[C@@H]1CCN(Cc1ccc3c(c1)OCO3)C2,1.17
8,Fc1cnc(N2CC[C@@H](N3CCOCC3)[C@@H]2Cc2ccccc2)nc1,8.96
9,OC(CN1CCN(Cc2cccc(F)c2)CC1)C1CC1 (configuration not stated),-11.3
10,COc1ccc(C)cc1C(=O)N1C[C@@H](CN(C)CCO)[C@@H](CO)C1,0.0463
11,COc1cc(CN(C)CCc2ccncc2)c(SC)cc1OC,-7.73
12,CN(C)S(=O)(=O)NCc1cccnc1Oc1ccc(F)cc1F,-3.42
13,CC(=O)NCCC(Cc1ccccc1)c1ccco1 (configuration not stated),-13.4
14,Cc1ccc(CN2CC(O)CN(C(=O)OCC(C)C)CC2=O)cc1 (configuration not stated),-4.78
15,OCCN1CCOC2(CCCN(c3cccc(F)c3)C2)C1 (configuration not stated),-7.62
16,Cc1cc(N2CCC(O)(CN(C)C(=O)CCN)C2)c2cnccc2n1 (configuration not stated),-4.6
17,O=c1c2c(ncn1CCO)nc1n2CCC1,-5.61
18,O=C1CO[C@H]2CN(S(=O)(=O)c3ccccc3)C[C@H]2N1Cc1ccccn1,-15
19,CC(C)c1nnc2n1CCN(C(=O)c1ccc(OCC3CC3)cc1)C2,-6.55
20,O=C(NCC(O)c1cccc(F)c1)C1CCN(C(=O)C2CCC2)CC1 (configuration not stated),-1.02
21,Cc1cc2cc(C(=O)N[C@@H]3CC[C@@H](N4CCCC4)[C@@H]3O)ccc2o1,-5.68
22,CCC1(C)Cc2ccccc2-c2nc(NCCCO)nc(O)c21 (configuration not stated),-4.42
23,c1ccc(CN2CCN3C[C@H](Oc4cncnc4)C[C@H]3C2)nc1,-3.2

row,Structure (SMILES),cytotoxicity at 70.5 h [%]
1,CN(Cc1ccccc1F)C(C(N)=O)c1ccccc1 (configuration not stated),5.98
2,CN1CCN(C(=O)c2cnn(-c3ccccc3Cl)c2)CC1,-8.29
3,CCC(NCc1ccccc1C)c1ccccc1OCC(=O)NC (configuration not stated),25.2
4,c1coc(CN2CCc3ncnc(C4CCOC4)c3CC2)c1 (configuration not stated),-9.16
5,CCOC(=O)CCNC(=O)N1CCCC(CNC(=O)c2cccs2)C1 (configuration not stated),-6.29
6,c1cnn([C@@H]2CN(Cc3nccs3)[C@@H]3CCCO[C@@H]32)c1,-6.1
7,CCN(Cc1ccncc1)C(=O)c1cn(CCC2CCCCC2)nn1,-16
8,CCCc1nnsc1C(=O)NCC1CCN(c2ncccn2)CC1,-13.9
9,COCCNC(=O)Nc1ccc(-c2nc(C(C)C)no2)cc1,-6.61
10,CCn1cc(CCC(=O)NCc2csc(C3CC3)n2)c(C)n1,-11.7
11,Cc1ccsc1C(=O)N1CC(C(=O)NCC2CC2)C2(CCOCC2)C1 (configuration not stated),7.19
12,COc1ccc(-n2ccc(CNCc3cccc(OC)c3)n2)cc1,23.7
13,CN(C)C(=O)N1CCN(C(=O)c2ccccc2)CC2(CNC(=O)C2)C1 (configuration not stated),-1.67
14,CCc1nccn1C1CCCN(C(=O)CCc2nccs2)C1 (configuration not stated),-15.8
15,O=C(c1ccno1)N1CC[C@@H]2O[C@H](COCCN3CCCC3)CC[C@@H]21,9.33
16,NC(=O)C1CN(C(=O)C2(c3ccc(F)cc3F)CCCC2)CCO1 (configuration not stated),-1.48
17,Cc1cc(CN(C)C(=O)CN2CC3(CCNCC3)OC2=O)n(C)n1,-9.14
18,Cn1cccc1C(=O)N1CCCCC12CC(=O)N(c1cccnc1)C2 (configuration not stated),-3.4
19,Cc1ccc(-c2ccnc(NC(c3ncccc3C)C3CC3)n2)c(C)n1 (configuration not stated),-3.87
20,COCCN(CCC#N)Cn1cc(Cl)cn1,-2.01
